Five compounds from patent US9295671B2, “Benzenesulfonamide derivatives of quinoxaline, pharmaceutical compositions thereof, and their use in methods for treating cancer” (NEUPHARMA, INC., priority 2011, dated 2016) can be followed below.

One test concerns A375 tumor xenograft. The test can be described thus: Inhibition of tumor growth in A375 tumor xenograft model. The format is in vivo, BALB/c female nude mice. To be noted: nude mice, Compound 12.5 mg/kg b.i.d. × 20 i.g., Cisplatin 6 mg/kg q7d × 3 i.p. As to the method: Cells were implanted in BALB/c female nude mice and grown as tumor xenografts. When tumors achieved 120-200 mm^3, mice were assigned into treatment and control groups using randomized block design based upon their tumor volumes. Each group contained 6 tumor-bearing mice. Tumors were measured twice weekly in two dimensions using a caliper, and the tumor volume was calculated from two-dimensional measurements using the equation V=0.5×a×b^2 where a and b are the long and short diameters of the tumor, respectively. Relative tumor volume (RTV) was defined as TVt/TVi, the ratio of the volume on a given day (TVt) and the volume at the start of treatment (TVi). Relative tumor growth rate (T/C) was defined as RTVT/RTVC, the ratio of relative tumor volume of treatment group (RTVT) and relative tumor volume of control group (RTVC) on a given day. Inhibition of tumor growth in a A375 tumor xenograft model is shown below in Table 6 for a compound of Table 1.

In test [1] the target is T1, BRAF V600E (Homo sapiens, UniProt P15056, V600E).
T1 construct: purchased Invitrogen
T1 sequence (P15056 whole entry V600E): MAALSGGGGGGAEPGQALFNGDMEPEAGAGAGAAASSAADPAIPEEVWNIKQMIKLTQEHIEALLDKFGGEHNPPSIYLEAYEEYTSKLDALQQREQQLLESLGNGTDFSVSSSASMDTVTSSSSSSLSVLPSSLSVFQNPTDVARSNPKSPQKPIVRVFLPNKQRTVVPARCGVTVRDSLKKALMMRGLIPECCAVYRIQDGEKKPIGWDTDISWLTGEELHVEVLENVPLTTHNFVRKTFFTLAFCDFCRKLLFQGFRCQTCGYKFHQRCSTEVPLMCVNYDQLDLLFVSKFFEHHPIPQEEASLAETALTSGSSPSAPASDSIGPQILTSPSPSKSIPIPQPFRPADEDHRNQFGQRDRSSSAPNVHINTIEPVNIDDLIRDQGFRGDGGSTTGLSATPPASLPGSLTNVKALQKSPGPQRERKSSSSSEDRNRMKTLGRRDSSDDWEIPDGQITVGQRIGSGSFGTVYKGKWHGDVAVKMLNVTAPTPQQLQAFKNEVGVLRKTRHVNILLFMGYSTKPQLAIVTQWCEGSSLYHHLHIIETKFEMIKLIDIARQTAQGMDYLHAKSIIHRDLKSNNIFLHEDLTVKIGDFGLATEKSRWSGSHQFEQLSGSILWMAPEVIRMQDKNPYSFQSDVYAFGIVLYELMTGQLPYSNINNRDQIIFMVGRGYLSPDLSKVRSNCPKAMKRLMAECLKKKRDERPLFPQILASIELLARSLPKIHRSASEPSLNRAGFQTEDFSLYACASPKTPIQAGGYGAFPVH
The experiment in a line: LanthaScreen kinase assay, BRAF V600E. The format is biochemical. To be noted: ATP 10 μM. As to the method:
(§1) The inhibitory activities of compounds against BRAF or BRAF V600E protein were measured using Invitrogne's LanthaScreen™ kinase assay which is based on fluorescein-labeled MAP2K1 as a substrate. The assay procedure is described as follows.
(§2) The scale utilized in Table 3 is as follows: ++++ less than 50 nM; +++ between 50 and 100 nM; ++ between 100 nM and 1 μM; and + greater than 1 μM.
For orientation: TR-FRET usually uses a lanthanide donor and a delayed reading to cut background.

In test [2] the test system is SK-MEL-31 (human melanoma cell, Braf WT Mutant). The experiment in a line: Inhibition of cancer cell growth, MTT or MTS assay, SK-MEL-31. The format is cell-based. To be noted: 72 h, highest concentration 100 μM. As for the experimental part: (§3) A375 (human melanoma cell, BRAF V600E Mutant), CHL-1 (human melanoma cell, BRAF wild type), SK-MEL-28 (human melanoma cell, BRAF V600E Mutant) and SK-MEL-31(human melanoma cell, Braf WT Mutant) were purchased from ATCC (American Type Culture Collection, Manassas, Va.). All cell lines were maintained in RPMI 1640 (Hyclone) or DMEM (Hyclone) supplemented with 10% fetal bovine serum (FBS, Hyclone), glutamine (2 mM, Hyclone), and antibiotics (penicillin 100 U/mL and streptomycin 50 μg/mL) at 37° C. in a humidified atmosphere of 5% CO2 in air.
(§4) To test IC50 of inhibition of individual compounds against each cell line, A375, SK-MEL-28and SK-MEL-31 cells were first plated in 96-well plates at densities of 3000 cells/well, and CHL-1 2500 cells/well. Cells were then incubated to allow cells to adhere and grow for 24 h. Cells were then treated with a series of concentrations of compounds for 72 h. The highest concentration of compounds was 10 μM for A375 and SK-MEL-28 cells and 100 μM for CHL-1 and SK-MEL-31 cells. Cells were then removed from the incubator and medium was removed by inverting and tapping the plates. 100 μL of MTT (0.5 mg/ml) or 10 μL or MTS was added to each well followed by an incubated at 37° C. for 4 h. Then MTT was removed and 200 μL of DMSO was added to each well, followed by reading the ODs at 570 nm after a 5 second shaking cycle in a 96-well spectrophotometer. For MTS method, MTS was not removed, and the incubated solutions were directly put in a 96-well spectrophotometer for the reading of the ODs at 492 nm.
(§5) IC50 was calculated by plotting the concentration of compound vs the percentage of inhibition in treated wells using GraphPad Prism 5. […] The scale utilized in Table 5 is as follows: +++ less than 500 nM; ++ between 500 nM and 1 μM; and + greater than 1 μM.
On the technique in general: Formazan colour is commonly taken as a measure of viable cells.

Test [3] addresses T2, BRAF (Homo sapiens, UniProt P15056).
T2 construct: purchased Invitrogen
The experiment in a line: Z′-LYTE kinase assay, BRAF (Invitrogen). It counts as biochemical. To be noted: Z′-LYTE method. As for the experimental part: (§6) Inhibitory activities of compounds against BRAF or BRAF V600E were measured by Invitrogen using Z′-LYTE® Method as briefly described in the following.
(§7) 4× Test compounds are dissolved in 1% DMSO. […] ATP solutions are diluted to a 4×ATP working concentration in Kinase Buffer (50 mM HEPES pH 7.5, 0.01% BRIJ-35, 10 mM MgCl2, 1 mM EGTA).
(§8) Reaction starts by 30-second shaking of mixture consisting of 2.5 μL4× test compound, […] and 2.5 μL 4×ATP Solution on Bar-coded Corning, low volume NBS, black 384-well plate (Corning Cat. #3676). Then the mixture is incubated for 60-minute at room temperature for the kinase reaction, followed by addition of 5 μL of a 1:1024 dilution of development reagent A and 30-second plate shake. The mixture is then incubated for another 60-minute at room temperature for development reaction. Finally fluorescence is read by plate reader.

The target in test [4] is T2, BRAF. The experiment in a line: LanthaScreen kinase assay, BRAF. The following applies: ATP 1 μM. It counts as biochemical. As to the method:
as §1, §2

Test [5] addresses T1, BRAF V600E. The experiment in a line: Z′-LYTE kinase assay, BRAF V600E (Invitrogen). It counts as biochemical. The following applies: Z′-LYTE method. As for the experimental part: as §6, §7, §8
Test [6] concerns CHL-1 (human melanoma cell, BRAF wild type). The experiment in a line: Inhibition of cancer cell growth, MTT or MTS assay, CHL-1. The following applies: 72 h, highest concentration 100 μM. The format is cell-based. As for the experimental part:
as §3, §4, §5

For test [7], the system named is A375 (human melanoma cell, BRAF V600E Mutant). The test can be described thus: Inhibition of cancer cell growth, MTT or MTS assay, A375. It counts as cell-based. To be noted: A-375, 72 h, highest concentration 10 μM (Table 5). As for the experimental part:
as §3, §4, §5

In test [8] the test system is SK-MEL-28 (human melanoma cell, BRAF V600E Mutant). The experiment in a line: Inhibition of cancer cell growth, MTT or MTS assay, SK-MEL-28. To be noted: 72 h, highest concentration 10 μM. The format is cell-based. As to the method:
as §3, §4, §5

T2 sequence (P15056 whole entry): as the sequence (P15056 whole entry V600E) above, with E600V counted along it

As to `N.N.[Cl][Pt][Cl]` [Cisplatin], in the test with A375 tumor xenograft, the “Tumor Volume Post-treatment” value was 647 mm^3 and the “Tumor Volume Pre-treatment” value was found to be 136 mm^3. The “T/C (relative tumor growth rate, RTVT/RTVC)” value in the test on A375 tumor xenograft (*p < 0.05, **p < 0.01) is reported as 44.4%*.
For the compound `CCCS(=O)(=O)Nc1cc(F)c(F)c(C(=O)c2ccc3nccnc3c2)c1F` [Compound C04, N-(2,4,5-trifluoro-3-(quinoxaline-6-carbonyl)phenyl)propane-1-sulfonamide], the IC50 on BRAF V600E [1] was below 50 nM; on BRAF [4], 50 to 100 nM; in [7] it was below 500 nM; in [8], below 500 nM. Also, in [2], the “IC50 SK-MEL-31” value is given as “No inhibition”. For the same compound, the inhibition at 1 µM at BRAF [3] and on BRAF V600E [5] was above 89% throughout. Further, the “IC50 CHL-1” value in test [6] is listed as “No inhibition”.
Turning to `CCCS(=O)(=O)Nc1ccc(F)c(C(=O)c2ccc3nccnc3c2)c1Cl` [Compound C06, N-(2-chloro-4-fluoro-3-(quinoxaline-6-carbonyl)phenyl)propane-1-sulfonamide], the IC50 on BRAF V600E [1] was below 50 nM; against BRAF [4], 100 to 1000 nM; in test [7], below 500 nM. The inhibition at 1 µM against BRAF [3] was 70 to 89%; against BRAF V600E [5] it was above 89%. In addition, the “IC50 CHL-1” value in test [6] is “No inhibition”.
With `CCCS(=O)(=O)Nc1cc(F)c(F)c(C(=O)c2ccc3ncc(N4CCOCC4)nc3c2)c1F` [Compound C09, N-(2,4,5-trifluoro-3-(3-morpholinoquinoxaline-6-carbonyl)phenyl)propane-1-sulfonamide], the IC50 is below 50 nM on BRAF V600E [1], 50 to 100 nM at BRAF [4], below 500 nM in test [7] and below 500 nM in test [8]. Besides, the “IC50 SK-MEL-31” value in test [2] was “No inhibition”. In addition, the inhibition at 1 µM against BRAF [3] and against BRAF V600E [5] was above 89% in each case. The “IC50 CHL-1” value in test [6] is recorded as “No inhibition”.
Turning to `CCCS(=O)(=O)Nc1cc(F)c(F)c(C(=O)c2ccc3ncc(-c4ccc(Cl)cc4)nc3c2)c1F` [Compound C12, N-(3-(3-(4-chlorophenyl)quinoxaline-6-carbonyl)-2,4,5-trifluorophenyl)propane-1-sulfonamide], the “IC50 SK-MEL-31” value in test [2] is on record as “No inhibition”. Also, the inhibition at 1 µM against BRAF [3] is 70 to 89%; against BRAF V600E [5], above 89%. Moreover, the “IC50 CHL-1” value in test [6] is “No inhibition”. Moreover, the IC50 is below 500 nM in [7] and 500 to 1000 nM in test [8].

The term IC50 denotes the concentration that inhibits the measured activity by half. Low values mean inhibition by little substance, high ones a need for much substance. What is called inhibition is how much of the control response was suppressed.
